Results taken from the NIST ThermoML archive (doi:10.1021/je060485s).

Experiments:
[1] = for surface tension liquid-gas: Pendant drop shape; for mass density: 101 kPa, Liquid
[2] = xn = mol fraction of the nth substance listed; conditions: for surface tension liquid-gas: Pendant drop shape; for mass density: 101 kPa, Liquid

Cc1ccccc1C [1,2-dimethylbenzene]
[1]
Conditions	mass density [kg/m3]	surface tension liquid-gas [mN/m]
298.15 K	875.05	29.89
303.15 K	870.83	29.24
308.15 K	866.62	28.57

Cc1ccccc1C [1,2-dimethylbenzene] + CCCOC(C)=O
[2], x2 = 0
Conditions	mass density [kg/m3]	surface tension liquid-gas [mN/m]
298.15 K	875.05	29.89
303.15 K	870.83	29.24
308.15 K	866.62	28.57

Cc1cccc(C)c1 [1,3-dimethylbenzene]
[1]
Conditions	mass density [kg/m3]	surface tension liquid-gas [mN/m]
298.15 K	859.8	28.47
303.15 K	855.51	27.93
308.15 K	851.19	27.37

Cc1cccc(C)c1 [1,3-dimethylbenzene] + CCCOC(C)=O
[2]
Conditions	mass density [kg/m3]	surface tension liquid-gas [mN/m]
298.15 K, x2 = 0	859.8	28.47
298.15 K, x2 = 0.0997	861.98	27.86
298.15 K, x2 = 0.1999	864.17	27.26
298.15 K, x2 = 0.2986	866.33	26.7
298.15 K, x2 = 0.4002	868.57	26.16
298.15 K, x2 = 0.4986	870.76	25.71
298.15 K, x2 = 0.6004	873.06	25.3
298.15 K, x2 = 0.6984	875.31	24.94
298.15 K, x2 = 0.8004	877.7	24.59
298.15 K, x2 = 0.9007	880.11	24.25
303.15 K, x2 = 0	855.51	27.93
303.15 K, x2 = 0.0999	857.57	27.35
303.15 K, x2 = 0.1989	859.62	26.79
303.15 K, x2 = 0.299	861.69	26.25
303.15 K, x2 = 0.4003	863.8	25.73
303.15 K, x2 = 0.5	865.9	25.27
303.15 K, x2 = 0.5994	868.02	24.88
303.15 K, x2 = 0.6998	870.19	24.51
303.15 K, x2 = 0.8006	872.42	24.15
303.15 K, x2 = 0.8992	874.66	23.81
308.15 K, x2 = 0	851.19	27.37
308.15 K, x2 = 0.0998	853.12	26.8
308.15 K, x2 = 0.2	855.07	26.25
308.15 K, x2 = 0.2998	857.01	25.71
308.15 K, x2 = 0.3993	858.96	25.19
308.15 K, x2 = 0.5006	860.96	24.7
308.15 K, x2 = 0.6004	862.95	24.27
308.15 K, x2 = 0.6999	864.97	23.89
308.15 K, x2 = 0.7988	867.02	23.52
308.15 K, x2 = 0.9013	869.2	23.15

Cc1ccc(C)cc1 [1,4-dimethylbenzene]
[1]
Conditions	mass density [kg/m3]	surface tension liquid-gas [mN/m]
298.15 K	856.92	28.08
303.15 K	852.58	27.47
308.15 K	848.26	27.13

Cc1ccc(C)cc1 [1,4-dimethylbenzene] + CCCOC(C)=O
[2], x2 = 0
Conditions	mass density [kg/m3]	surface tension liquid-gas [mN/m]
298.15 K	856.92	28.08
303.15 K	852.58	27.47
308.15 K	848.26	27.13

CCc1ccccc1 [ethylbenzene]
[1]
Conditions	mass density [kg/m3]	surface tension liquid-gas [mN/m]
298.15 K	862.25	28.79
303.15 K	857.88	28.29
308.15 K	853.43	27.85

CCc1ccccc1 [ethylbenzene] + CCCOC(C)=O
[2], x2 = 0
Conditions	mass density [kg/m3]	surface tension liquid-gas [mN/m]
298.15 K	862.25	28.79
303.15 K	857.88	28.29
308.15 K	853.43	27.85

CCCOC(C)=O [propyl ethanoate]
[1]
Conditions	mass density [kg/m3]	surface tension liquid-gas [mN/m]
298.15 K	882.54	23.91
303.15 K	876.99	23.46
308.15 K	871.35	22.79

CCCOC(C)=O [propyl ethanoate] + CCc1ccccc1
[2]
Conditions	mass density [kg/m3]	surface tension liquid-gas [mN/m]
298.15 K, x1 = 0.1005	864.23	28.15
298.15 K, x1 = 0.1994	866.18	27.51
298.15 K, x1 = 0.3002	868.16	26.89
298.15 K, x1 = 0.4005	870.14	26.35
298.15 K, x1 = 0.5	872.12	25.91
298.15 K, x1 = 0.6002	874.14	25.5
298.15 K, x1 = 0.6997	876.17	25.1
298.15 K, x1 = 0.7998	878.24	24.7
298.15 K, x1 = 0.9007	880.38	24.3
298.15 K, x1 = 1	882.54	23.91
303.15 K, x1 = 0.1001	859.75	27.7
303.15 K, x1 = 0.1995	861.59	27.1
303.15 K, x1 = 0.2995	863.45	26.49
303.15 K, x1 = 0.4	865.32	25.95
303.15 K, x1 = 0.5004	867.2	25.49
303.15 K, x1 = 0.5995	869.08	25.07
303.15 K, x1 = 0.6999	871	24.65
303.15 K, x1 = 0.8005	872.96	24.24
303.15 K, x1 = 0.9007	874.96	23.85
303.15 K, x1 = 1	876.99	23.46
308.15 K, x1 = 0.1	855.19	27.24
308.15 K, x1 = 0.2	856.93	26.62
308.15 K, x1 = 0.2999	858.67	26.01
308.15 K, x1 = 0.3997	860.41	25.46
308.15 K, x1 = 0.5003	862.18	24.97
308.15 K, x1 = 0.5999	863.95	24.52
308.15 K, x1 = 0.7001	865.74	24.08
308.15 K, x1 = 0.8007	867.58	23.65
308.15 K, x1 = 0.9003	869.44	23.22
308.15 K, x1 = 1	871.35	22.79
